Reference: the NIST ThermoML archive (doi:10.1021/je500936y)
Numbers after ± are expanded uncertainties.

Experiments:
[1] = refractive index (Na D-line) (dimensionless); details: 100 kPa, Liquid, Standard Abbe refractometry
[2] = 100 kPa, Liquid; for speed of sound: Frequency=3 MHz, Sing-around technique in a fixed-path interferometer; for mass density: Vibrating tube method
[3] = refractive index (Na D-line) (dimensionless); xn = mol fraction of the nth substance listed; details: 100 kPa, Liquid, Standard Abbe refractometry, x1 = 1
[4] = xn = mol fraction of the nth substance listed; details: 100 kPa, Liquid, x1 = 1; for speed of sound: Frequency=3 MHz, Sing-around technique in a fixed-path interferometer; for mass density: Vibrating tube method

| Compound | refractive index ([1]; 298.15 K) | refractive index ([1]; 303.15 K) | refractive index ([1]; 308.15 K) | refractive index ([1]; 313.15 K) | refractive index ([1]; 318.15 K) | refractive index ([1]; 323.15 K) | speed of sound ([2]; 298.15 K) [m/s] | mass density ([2]; 298.15 K) [kg/m3] | speed of sound ([2]; 303.15 K) [m/s] | mass density ([2]; 303.15 K) [kg/m3] | speed of sound ([2]; 308.15 K) [m/s] | mass density ([2]; 308.15 K) [kg/m3] | speed of sound ([2]; 313.15 K) [m/s] | mass density ([2]; 313.15 K) [kg/m3] | speed of sound ([2]; 318.15 K) [m/s] | mass density ([2]; 318.15 K) [kg/m3] | speed of sound ([2]; 323.15 K) [m/s] | mass density ([2]; 323.15 K) [kg/m3] | other results |
| --- | --- | --- | --- | --- | --- | --- | --- | --- | --- | --- | --- | --- | --- | --- | --- | --- | --- | --- | --- |
| CCCCn1cc[n+](C)c1.F[B-](F)(F)F [1-butyl-3-methylimidazolium tetrafluoroborate] | 1.42058 ± 0.00087 | 1.41913 ± 0.00087 | 1.41764 ± 0.00087 | 1.41621 ± 0.00087 | 1.41472 ± 0.00087 | 1.4133 ± 0.00087 | 1565.1 ± 1.3 | 1198.78 ± 0.39 | 1553.2 ± 1.2 | 1195.18 ± 0.39 | 1541.3 ± 1.2 | 1191.6 ± 0.39 | 1529.7 ± 1.2 | 1188.04 ± 0.38 | 1518.2 ± 1.2 | 1184.5 ± 0.38 | 1506.8 ± 1.2 | 1180.98 ± 0.38 | – |
| CCCCn1cc[n+](C)c1.F[B-](F)(F)F [1-butyl-3-methylimidazolium tetrafluoroborate] + C=CN1CCCC1=O | – | – | – | – | – | – | – | – | – | – | – | – | – | – | – | – | – | – | refractive index ([3]; 298.15 K): 1.42058 ± 0.00087; refractive index ([3]; 303.15 K): 1.41913 ± 0.00087; refractive index ([3]; 308.15 K): 1.41764 ± 0.00087; refractive index ([3]; 313.15 K): 1.41621 ± 0.00087; refractive index ([3]; 318.15 K): 1.41472 ± 0.00087; refractive index ([3]; 323.15 K): 1.4133 ± 0.00087; speed of sound ([4]; 298.15 K): 1565.1 ± 1.3 m/s; mass density ([4]; 298.15 K): 1198.78 ± 0.39 kg/m3; speed of sound ([4]; 303.15 K): 1553.2 ± 1.2 m/s; mass density ([4]; 303.15 K): 1195.18 ± 0.39 kg/m3; speed of sound ([4]; 308.15 K): 1541.3 ± 1.2 m/s; mass density ([4]; 308.15 K): 1191.6 ± 0.39 kg/m3; speed of sound ([4]; 313.15 K): 1529.7 ± 1.2 m/s; mass density ([4]; 313.15 K): 1188.04 ± 0.38 kg/m3; speed of sound ([4]; 318.15 K): 1518.2 ± 1.2 m/s; mass density ([4]; 318.15 K): 1184.5 ± 0.38 kg/m3; speed of sound ([4]; 323.15 K): 1506.8 ± 1.2 m/s; mass density ([4]; 323.15 K): 1180.98 ± 0.38 kg/m3 |
| C=CN1CCCC1=O [N-vinylpyrrolidone] | 1.51119 ± 0.001 | 1.50886 ± 0.001 | 1.5065 ± 0.001 | 1.50415 ± 0.001 | 1.50181 ± 0.001 | 1.49948 ± 0.001 | 1521.5 ± 3.1 | 1039.36 ± 2 | 1502.5 ± 3.1 | 1034.95 ± 2 | 1483.7 ± 3.1 | 1030.55 ± 2 | 1465 ± 3.1 | 1026.14 ± 2 | 1446.5 ± 3.1 | 1021.73 ± 2 | 1428.1 ± 3.1 | 1017.33 ± 1.9 | – |
